# Experimental data from patent US7723289B2, “PIF tetrapeptides” (BioIncept, LLC, priority 2003, dated 2010).
# Experiments:
# PBMC = assay: FITC-labeled PIF binding to PBMC subpopulations (flow cytometry); set-up: species or system human; details: PBMC within 24 hrs of PHA activation
# Method: Expression of PIF-1(15) (SEQ ID NO:1), receptor following PHA induced PBMC proliferation CD-4 T cells; CD-8 T cells; NK cell and B cells (unstimulated-top); (PHA stimulated-bottom). Flow cytometry analysis of PBMC following exposure to FITC sPIF-1(15) (SEQ ID NO:13) % expression was determined in PBMC subtypes before and after exposure to 1 ug/ml PHA for 24 hours.
# Human PBMC were isolated by the Ficoll method. FITC-labeled nPIF-115 (SEQ ID NO: 1) and (FITC)-labeled scrPIF-1 (SEQ ID NO:5) and match-size irrelevant peptide (FITC)-labeled negative controls negPIF-1(15) (SEQ ID NO:11), were dissolved in PBS at concentrations ranging from 0.75 to 48.19 μM, and were incubated with 500,000 lymphocytes for 1 h at room temperature. The cells were washed 6 times with PBS and resuspended in 500 μl of the same buffer. T-cells and monocytes identification was performed in independent experiments by incubation with anti-CD3 and anti-CD14 antibody-phycoerithryn (PE) labeled. nPIF-115 (SEQ ID NO: 1) binding to PBMC was determined by flow cytometry. In addition, rosettes formed by T cell-platelets were detected by flow cytometry using anti-CD3 antibody-PE and anti-CD41a antibody-FITC (all antibodies were from Pharmingen Inc.).
# Using flow cytometry fluoroscein-labeled sPIF-115 (SEQ ID NO: 13) binding to immune cells was examined on resting PBMC.
# mouse splenocytes = assay: FITC peptide binding to mouse splenocytes with 100 fold excess unlabeled peptide; set-up: species or system C57Bl/6 mice; details: 300 nM FITC peptide, 100 fold excess unlabeled PIF
# Method: Virgin female C57Bl/6 mice were sacrificed and spleen cells were isolated and placed in AIM V culture media with 300 nM FITC PIF-1 (15)+/−100 fold excess unlabeled PIF. Following incubation cells were placed in a flow cytometry and the percentage of cells stained examined.
# Splenocytes from virgin female C57BL/6 mice were stained with 300 nM of PIF-1-FITC or scrPIF-1-FITC. Filled histograms indicated PIF-1-FITC or scrPIF-1-FITC alone. Empty histograms represent PIF-1-FITC or scrPIF-1-FITC staining in the presence of 100-fold excess of corresponding unlabeled peptide. Histograms represent both monocytes and lymphocytes according to scatter gating.
# Cells were evaluated using flow cytometry determining labeled cells population Filled histograms indicate PIF-FITC or scrPIF-FITC alone. […] Empty histograms represent PIF-FITC or scrPIF-FITC staining in the presence of 100-fold excess of corresponding unlabeled peptide. Histograms represent both monocytes and lymphocytes according to scatter gating.
# [1] = Whole body distribution of FITC labeled PIF-1 after IV and IP injection; type: in vivo, rats
# Method: In a further experiment, PIF presence in the spleen was confirmed in vivo, In addition, PIF presence in the cecum, bone marrow and uterus was determined. Adult female rats were injected FITC labeled PIF-1 500 nM in 100 ul volume IV and IP (Eric Solon QPS Inc). 5 and 30 minutes later rats were sacrificed and snap frozen in hexane embedded in frozen media. Whole body 40 um cryo sectioned were obtained and scaaned with a 9140 Typhoon bioimage scanner at a FITC excitation length.
substance,measurement,setting,value
FITC sPIF-1(15): sPIF-1(15) labeled on N-terminus with fluorescein isothyocyanate via b-alanine spacer,B cells positive for fluorescent PIF binding,PBMC,> 90%
same,T lymphocytes positive for fluorescent PIF binding,PBMC,60-80%
same,dissociation of FITC PIF from the PIF receptor by unlabeled peptide,mouse splenocytes,> 90%
same,IP pick up,"[1]; 500 nM in 100 ul IP, 5 and 30 minutes",slower with major collection in the cecum
same,organs with specific pick up,"[1]; 500 nM in 100 ul IV, 5 and 30 minutes","spleen, bone marrow and uterus"
same,elimination,"[1]; IV injected, FIG. 19",rapid elimination by the kidney
